Measured values from US20210380948A1, “METHOD TO ALTER CHINESE HAMSTER OVARY CELL LINE STABILITY” (University of Delaware, priority 2018, published 2021).

Columns and labels:
CHO-K1 cells [1] = experiment: γH2AX foci count after bleomycin DSB induction, CHO-K1; type: cell-based, Chinese hamster; settings: for Induced DSB number: one-hour treatment
Procedure: (§1) CHO-K1, bEnd.3 or transfected CHO-K1 cells were seeded in chambers of an 8-well chambered cover glass (Cellvis, Mountain View, Calif.) at 2×10^5 cells/mL with 0.5 mL culture media. After 24-hour incubation, cells were treated with 10 μg/mL bleomycin (Sigma-Aldrich, St. Louis, Mo.) for 1 or 12 hours or with 50 μg/mL for 1 hour, followed by immediate media change with fresh warm culture media. After indicated hours of incubation in fresh media, the treated cells were washed three times with Tris buffered saline (TBS), fixed with 4% paraformaldehyde in TBS for 15 min, washed three times with TBS, permeabilized with 0.1% Triton-X100 (Sigma-Aldrich, St. Louis, Mo.) in TBS for 5 min, and washed three times with TBS. Cells were then blocked in TBS containing 3% goat serum (Sigma-Aldrich, St. Louis, Mo.) for 1 hour, incubated with 1:500 primary antibody (anti-phosphorylated γH2AX antibody, EMD Millipore, Billerica, Mass.) at 4° C. overnight, washed three times with TBS, and incubated with 1:1000 Alexa Fluor 488-conjugated secondary antibody (anti-mouse IgG antibody, Life Technologies, Carlsbad, Calif.) for 1 hour at room temperature. After three TBS washes, nuclei were stained with 4′,6-diamidino-2-phenylindole (DAPI, Invitrogen, Carlsbad, Calif.) for 15 min and again washed three times with TBS. Images were taken using a LSM 710 confocal microscope (Carl Zeiss, Thornwood, N.Y.) with a 63× objective. At least 50 cells and foci were counted per cell sample in duplicate cultures using software ImageJ.

[2] = system: BHK-21 hamster fibroblast; experiment: γH2AX foci count after bleomycin DSB induction, BHK-21; type: cell-based; settings: for Induced DSB number: one-hour treatment
Procedure: [The source words this procedure for another cell line and reports this cell line under the same test.] as §1

[3] = system: bEnd.3 mouse endothelial cells; experiment: γH2AX foci count after bleomycin DSB induction, bEnd.3; type: cell-based; settings: for Induced DSB number: one-hour treatment
Procedure: as §1

CHO-K1 cells [4] = experiment: γH2AX foci count in CHO-K1 cells transiently expressing DSB repair genes after bleomycin treatment; type: cell-based, Chinese hamster; settings: CH-version gene transiently expressed; 12-hour 10 μg/mL bleomycin; FIG. 3
Excerpt: To clone eight DSB repair genes, total mRNA from CHO-K1 cells or Chinese hamster liver tissue was extracted using Qiagen RNeasy Mini kit and reverse-transcribed into cDNA to be used as templates to generate gene fragments by PCR. FBXO18 gene and partial sequences of RNF8 and LIG4 genes were synthesized as gBlocks Gene Fragments (Integrated DNA Technologies, Coralville, Iowa). A vector fragment was obtained by PCR amplification from plasmid pcDNA3.1/zeo(+) (Thermo Fisher, Waltham, Mass.). Plasmids expressing DSB repair genes were constructed via Gibson assembly of gene fragment(s) and the vector fragment following the manufacturer's instruction (New England Biolabs, Ipswich, Mass.).
CHO-K1, BHK-21 hamster fibroblast (ATCC, Manassas, Va.) and bEnd.3 mouse endothelial cells (ATCC, Manassas, Va.) were cultured in 5 mL Iscove's Modified Dulbecco's Medium (IMDM, Hyclone Laboratories Inc., Logan, Utah) supplemented with 10% fetal bovine serum (FBS, Hyclone Laboratories Inc., Logan, Utah) in T-25 culture flasks (Corning Inc., Corning, N.Y.) at 37° C. and 5% CO2. […]
CHO-K1, bEnd.3 or transfected CHO-K1 cells were seeded in chambers of an 8-well chambered cover glass (Cellvis, Mountain View, Calif.) at 2×10^5 cells/mL with 0.5 mL culture media. […] At least 50 cells and foci were counted per cell sample in duplicate cultures using software ImageJ.

Row | Molecule | DSB repair rate after removing bleomycin (CHO-K1 cells [1]; CHO cells, 12-hour treatment with 10 μg/mL bleomycin) | Induced DSB number (CHO-K1 cells [1]; CHO-K1, BL 10 μg/mL) | Induced DSB number (CHO-K1 cells [1]; CHO-K1, BL 50 μg/mL) | Repair rate (CHO-K1 cells [1]; CHO-K1, after BL 10 μg/mL one-hour treatment) | Repair rate (CHO-K1 cells [1]; CHO-K1, after BL 50 μg/mL one-hour treatment) | Induced DSB number ([2]; BHK-21, BL 10 μg/mL) | Induced DSB number ([2]; BHK-21, BL 50 μg/mL) | Repair rate ([2]; BHK-21, after BL 10 μg/mL one-hour treatment) | Repair rate ([2]; BHK-21, after BL 50 μg/mL one-hour treatment) | DSB repair rate after removing bleomycin ([2]; BHK-21 cells, 12-hour treatment with 10 μg/mL bleomycin) | DSB repair rate after removing bleomycin ([3]; bEnd.3 cells, 12-hour treatment with 10 μg/mL bleomycin) | Induced DSB number ([3]; bEnd.3, BL 10 μg/mL) | Induced DSB number ([3]; bEnd.3, BL 50 μg/mL) | Repair rate ([3]; bEnd.3, after BL 10 μg/mL one-hour treatment) | Repair rate ([3]; bEnd.3, after BL 50 μg/mL one-hour treatment) | DSB level at one hour after bleomycin removal versus control CHO-K1 cells (CHO-K1 cells [4]) | DSB repair within 24 hours after bleomycin removal versus control CHO-K1 cells (CHO-K1 cells [4])
1 | bleomycin | 0.89 DSB per hour | 6 | 13 | 0.9 DSB/hour | 1.7 DSB/hour | 13 | 20 | 1.8 DSB/hour | 2.3 DSB/hour | 2.64 DSB per hour | 1.03 DSB per hour | 14 | 21 | 2.2 DSB/hour | 3.2 DSB/hour | – | –
2 | LIG4: heterologous DSB repair protein DNA ligase IV, CH- or CHO-version, expressed from plasmid in CHO-K1 cells (protein, UniProt G3GTP0 1-912, looked up) DNA ligase 4: MATSQTSQTVAAHVPFADLCSTLERIQKSKERAEKIRHFKEFLDSWRKFHDALHKNKKDVTDSFYPAMRLILPQLERERMAYGIKETMLAKLYIELLNLPREGKDALKLLNYRTPSGARTDAGDFAVIAYFVLKPRCLQKGSLTIQQVNELLDLVASNNSGKRKDLVKKSLLQLITQSSALEQKWLIRMIIKDLKLGVSQQTILNIFHNDAVELHNVTTDLEKVCRQLHDPAVGLSDISITLFSAFKPMLAAVADVERVEKDMKQQSFYIETKLDGERMQMHKDGSVYQYFSRNGYNYTDQFGASPQEGTLTPFIHDAFRTDVQVCILDGEMMAYNPTTQTFMQKGVKFDIKRMVEDSDLQTCYCVFDVLMVNNKKLGRETLRKRYDILNSTFTPIQGRIEIVQKKLAQTKNEVVDALNEAIDKREEGIMIKHPLSIYKPDKRGEGWLKIKPEYVSGLMDELDLLIVGGYWGKGSRGGMMSHFLCAVAEKPPHGEKPSVFHTLCRVGSGYTMKELYDLGLKLAKYWKPFHKKSPPSSILCGTEKPEVYIEPCNSVIVQIKAAEIVPSDMYKTGTTLRFPRIEKIRDDKEWHECMTLGDLEELRGKASGKLATKHLHVGDDDEPREKRRKPVSKMKKTIGIIEHLKAPNLSNISKVSNVFEDVEFCVMSGLDGYPKSDLENRIAEFGGYIVQNPGPDTYCVIAGCENIRVKNIISSDQHDVVKPEWLLECFKTKTCVPWQPRFMIHMCPSTKQHFAREYDCYGDSYFVDTDLDQLKEVFLGIKKAGEHQTPEEMAPVIADLEYRYSWDHSPLCMFRHCTVYLDLYAVINDSSSKIKATRLDVTALELRFHGAKVVSHLSEGVSHVIIGENQSRVSDFKVFRRTLKKKFKILQERWVTDSVDKGELQEENQYLL | – | – | – | – | – | – | – | – | – | – | – | – | – | – | – | lower DSB level | significantly improved DSB repair
